Data reported in patent publication US12467068B2, “Process for the production and recovery of bio-surfactant from Bacillus sp. MCC0156” (COUNCIL OF SCIENTIFIC & INDUSTRIAL RESEARCH, priority 2019, dated 2025).
Values belong to the molecule of their own block, whether it stands above or below them.

Tests used:
[1] = Surfactant properties of purified compounds (oil dispersion, surface tension, emulsification); format: physicochemical; details: purified compound
Experimental: The purified compounds from the crude biosurfactants were analyzed for oil dispersion (OD), surface tension and emulsification activities using the standard protocols as mentioned in methodology. […] The low CMC value 0.3 mg/ml for crude biosurfactant results from mixture of compounds in compare to purified single compound.

[2] = parameters: Surface tension reduced to: unit not given here; details: cited from earlier work
Artemia salina = assay: Toxicity on microcrustacean Artemia salina (mortality after 24 h); format: in vivo; details: 24 h at 28 °C, artificial sea water
Experimental: The toxicity of bio-surfactants on microcrustacean Artemia salina was performed in artificial sea water with 30 g/L (w/v) NaCl. Different concentrations like, 10 μg/ml, 100 μg/ml and 1000 μg/ml of crude bio-surfactant and purified compound-1 was supplemented in artificial sea salt solution (pH 8.0) and inoculated with 20 numbers of micro-crustacean A. salina in 10 ml per tube of solution and incubated for 24 h at 28° C. under artificial light condition.
The toxicity of bio-surfactants was determined by calculating the mortality rate against the control (in triplicate) after 24 h incubation. The effect of biosurfactants on the microorganisms was studied in minimal salt medium (MSM) to determine the utilization or degradation pattern of bio-surfactant in presence of Pseudomonas aeruginosa NCIM 2037, Arthrobacter sp NCIM 5452 and Rhodococcus sp NCIM 5488. The minimal salt medium was supplemented with 100 ppm of crude biosurfactant and inoculated with all three strains and incubated at 30° C., 150 rpm for 72 h. Effect of biosurfactants on growth of test strains were determined through measuring the optical density at 620 nm after incubation of 72 h.

- Surface properties (oil dispersion, surface tension, emulsification activity) [1]: not active
Molecule: CC(C)CCCCCCCCCCCCC(O)CC(=O)O (stereo not drawn) [compound-2, 3-Hydroxy-16-methylheptadecanoic acid]

Molecule: Aneurinifactin
- Surface tension reduced to ([2]; reported biosurfactant): 26
- CMC value ([2]; reported biosurfactants): 0.026 mg/mL

Molecule: C=CCCCCCCCCCCCCCCCCCCCCCCCCCCCCCCCCCCCCCCCCCCCCCCCCCCCCCCCCCCCCCCCCCCCCCCCCCCCCCCCCCCCCCCCCCCCCC [compound-1, 1-Pentanonacontene]
- Mortality (Artemia salina; 10 μg/ml): 59%
- Mortality (Artemia salina; 100 μg/ml): 61%
- Mortality (Artemia salina; 1000 ug/ml): 68%
- E24 for n-hexane [1]: 40%
- Oil dispersion efficiency [1]: 93.75%
- Surface tension of distilled water decreased to ([1]; distilled water 71.41±0.069 mN/m): 28.53±0.02 mN/m
